This is an account of results in patent US11434258B2, “Compounds (immunorhelins)” (ISR IMMUNE SYSTEM REGULATION HOLDING AB (PUBL), priority 2017, dated 2022).

For one data set, the system named is T cells. Kind of data set: Immune stimulation assay: MHC class I expression on T cells (PBMCs, flow cytometry). The conditions noted are these: PBMCs from a healthy donor, with IL-2, 72 hours. It is filed as cell-based, human. The procedure: FIG. 1: Expression of MHC class I after stimulation of T cells with increasing concentrations of GnRH II. PBMCs from a healthy donor was stimulated with GnRH II and IL-2 for 72 hours. Data points represent mean fluorescent intensity of MCH class I expression on CD4^+ T cells (blue triangles) or CD8^+ T cells (black squares) measured with flow cytometry.
(black). […] Data points represent mean fluorescent intensity of MCH class I expression on CD4^+ T cells (A) or CD8^+ T cells (B) measured with flow cytometry.
Human peripheral blood mononuclear cells (PBMCs) were purified from healthy donors with Ficoll-Hypaque density centrifugation. Cells were cultured in RPMI-1640 medium (Invitrogen) supplemented with 10% fetal bovine serum, 100 […], 100 μg/mL streptomycin and IL-2 (100 U/mL) for 72 hours in 37° C., 5% CO2.

For data set [1] the following is noted: pH 7.4.

Counter-ions that a name gives are not always drawn. Non-standard residues stand in square brackets, D forms with d. Residues, ends and D or L forms follow the SMILES beside them. pGlu = O=C1CC[C@@H](C(=O)O)N1

Consider `NC(=O)CNC(=O)[C@@H]1CCCN1C(=O)[C@H](Cc1ccc(O)cc1)NC(=O)[C@H](Cc1c[nH]c2ccccc12)NC(=O)CNC(=O)[C@H](Cc1c[nH]cn1)NC(=O)[C@H](CO)NC(=O)[C@H](Cc1c[nH]c2ccccc12)NC(=O)[C@H](Cc1c[nH]cn1)NC(=O)[C@@H]1CCC(=O)N1` [GnRH II] ([pGlu]HWSHGWYPG-NH2), for which the “MHC class I expression on T cells” value with T cells is “directly activates these cells”.

On to `CCNC(=O)[C@@H]1CCCN1C(=O)[C@H](CCCNC(=N)N)NC(=O)[C@H](CC(C)C)NC(=O)[C@@H](Cc1cn(Cc2ccccc2)cn1)NC(=O)[C@H](Cc1ccc(O)cc1)NC(=O)[C@H](CO)NC(=O)[C@H](Cc1c[nH]c2ccccc12)NC(=O)[C@H](Cc1cnc[nH]1)NC(=O)[C@@H]1CCC(=O)N1` [Histrelin TFA], for which, in data set [1], the Solubility grading was found to be 2. For the molecule `CCNC(=O)[C@@H]1CCCN1C(=O)[C@H](CCCNC(=N)N)NC(=O)[C@H](CC(C)C)NC(=O)[C@@H](Cc1cn(Cc2ccccc2)cn1)NC(=O)[C@H](Cc1ccc(O)cc1)NC(=O)[C@H](CO)NC(=O)[C@H](Cc1c[nH]c2ccccc12)NC(=O)[C@H](Cc1cnc[nH]1)NC(=O)[C@@H]1CCC(=O)N1` [Histrelin acetate], in data set [1], the Solubility grading is recorded as 4.
